Where two headings read alike, the source gives them in different places.
What was measured:
229E Mpro = 229E Mpro (Human coronavirus 229E, UniProt P0C6X1); test: 229E Mpro enzymatic assay; type: biochemical, HCoV 229E
Experimental: (§1) Compounds were assayed using standard methods to assess compound activity and IC50. As an exemplary for assessment of the SARS-COV2 Mpro, the C-His6-tagged Mpro (NC_045512) was cloned, expressed in E. coli and purified. The assay buffer contained 20 mM of Tris-HCl (pH 7.3), 100 mM of NaCl, 1 mM of EDTA, 5 mM of TCEP and 0.1% BSA. The final concentrations of the Mpro protein and substrate were 25 nM and 25 μM, respectively, in the Mpro enzymatic assay. The Km of the Mpro substrate for the protease was 13.5 μM.
(§2) The compounds were added to an assay plate. For 100% inhibition control (HPE, hundred percent effect), 1 μM GC376 was added. For no inhibition control (ZPE, zero percent effect), no compound was added.
(§3) IC50 values of compounds were calculated with the GraphPad Prism software using the nonlinear regression model of log(inhibitor) vs. response—Variable slope (four parameters). The inhibition activity was calculated using the formula below, IC50 values is calculated using the Inhibition % data.
(§4) [formula] • #HEP: Hundred percent effect controls. Containing substrate+enzyme+1 μM GC376. • ZPE: Zero percent effective controls. Containing enzyme+substrate, no compound. • Sample: Compound activity testing wells. Containing compound+enzyme+substrate. • BG: Compound background control wells. Containing compound+substrate, no enzyme.

SARS-COV2 Mpro = SARS-COV2 Mpro (Severe acute respiratory syndrome coronavirus 2, UniProt P0DTD1); test: COVID-19 (nCoV-2019, SARS-CoV2) Mpro enzymatic assay; type: biochemical; details: read-out: COVID-19 Mpro IC50
Experimental: as §1, with “assay.” for “assay. The Km of the Mpro substrate for the protease was 13.5 μM.”
The compounds were added to an assay plate. For 100% inhibition control (HPE, hundred percent effect), 1 μM GC376 was added.
as §3
[formula] • #HEP: Hundred percent effect controls. […] Containing enzyme+substrate, no compound. • Sample: Compound activity testing wells. Containing compound+enzyme+substrate. • BG: Compound background control wells. Containing compound+substrate, no enzyme.

OC43 Mpro = OC43 Mpro (Human coronavirus OC43, UniProt P0C6X6); test: OC43 Mpro enzymatic assay; type: biochemical, HCoV OC43
OC43 Mpro, sequence (P0C6X6 3247-3549): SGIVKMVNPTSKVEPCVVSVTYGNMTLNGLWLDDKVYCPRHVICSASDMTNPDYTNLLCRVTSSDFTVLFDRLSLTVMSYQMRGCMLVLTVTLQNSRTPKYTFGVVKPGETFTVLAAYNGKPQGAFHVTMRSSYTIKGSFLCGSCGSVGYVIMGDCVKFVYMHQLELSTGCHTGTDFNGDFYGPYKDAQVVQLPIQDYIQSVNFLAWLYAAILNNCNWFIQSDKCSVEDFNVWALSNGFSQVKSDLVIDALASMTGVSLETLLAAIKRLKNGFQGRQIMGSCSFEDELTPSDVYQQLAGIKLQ
Experimental: as §1, §2, §3, §4

229E Mpro, sequence (P0C6X1 2966-3267): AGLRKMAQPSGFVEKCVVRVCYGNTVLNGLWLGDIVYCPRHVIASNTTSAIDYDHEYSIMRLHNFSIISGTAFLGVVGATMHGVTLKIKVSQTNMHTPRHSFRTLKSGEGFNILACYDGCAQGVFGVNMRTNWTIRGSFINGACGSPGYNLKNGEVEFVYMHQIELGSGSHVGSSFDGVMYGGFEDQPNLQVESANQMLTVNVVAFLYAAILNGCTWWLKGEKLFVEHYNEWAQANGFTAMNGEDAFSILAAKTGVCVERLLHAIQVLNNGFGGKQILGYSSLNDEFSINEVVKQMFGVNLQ

Compound	IC50 (229E Mpro; Table 3) [nM]	IC50 (SARS-COV2 Mpro; Table 3) [nM]	IC50 (OC43 Mpro; Table 3) [nM]	IC50 (229E Mpro; Table 5) [nM]	IC50 (SARS-COV2 Mpro; Table 5) [nM]	IC50 (OC43 Mpro; Table 5) [nM]
CC(C)(C)[C@H](NC(=O)OC1CC(F)(F)C1(F)F)C(=O)N1C[C@H]2[C@@H]([C@H]1C(=O)N[C@H](C#N)C[C@@H]1CC3(CC3)NC1=O)C2(C)C (single isomer, unassigned) [273 Isomer 1]	< 2000	< 2000	< 2000	–	–	–
CC(C)(C)[C@H](NC(=O)OC1CC(F)(F)C1(F)F)C(=O)N1C[C@H]2[C@@H]([C@H]1C(=O)N[C@H](C#N)C[C@@H]1CC3(CC3)NC1=O)C2(C)C (single isomer, unassigned) [273 Isomer 2]	< 2000	< 2000	< 2000	–	–	–
CC(C)(C)[C@H](NC(=O)C1(CF)CC1(F)F)C(=O)N1C[C@H]2[C@@H]([C@H]1C(=O)N[C@H](C#N)C[C@@H]1CC3(CC3)NC1=O)C2(C)C (single isomer, unassigned) [292 Isomer 1]	< 2000	< 2000	< 2000	–	–	–
CC(C)(C)[C@H](NC(=O)C1(CF)CC1(F)F)C(=O)N1C[C@H]2[C@@H]([C@H]1C(=O)N[C@H](C#N)C[C@@H]1CC3(CC3)NC1=O)C2(C)C (single isomer, unassigned) [292 Isomer 2]	< 2000	< 2000	< 2000	–	–	–
CC1(C)[C@@H]2[C@@H](C(=O)N[C@H](C#N)C[C@@H]3CC4(CC4)NC3=O)N(C(=O)C(NC(=O)C(F)(F)F)C3CCC3)C[C@@H]21 (single isomer, unassigned) [372 Isomer 1]	< 2000	< 2000	< 2000	–	–	–
CC1(C)[C@@H]2[C@@H](C(=O)N[C@H](C#N)C[C@@H]3CC4(CC4)NC3=O)N(C(=O)C(NC(=O)C(F)(F)F)C3CCC3)C[C@@H]21 (single isomer, unassigned) [372 Isomer 2]	< 2000	< 2000	< 2000	–	–	–
COC(C)(C)[C@H](NC(=O)C(F)(F)F)C(=O)N1C[C@H]2[C@@H]([C@H]1C(=O)N[C@H](C#N)C[C@@H]1CC3(CC3)NC1=O)C2(C)C (single isomer, unassigned) [Compound 284]	–	–	–	10000 to 30000	< 2000	< 2000
C[C@@H](OC1CC1)[C@H](NC(=O)C(F)(F)F)C(=O)N1C[C@H]2[C@@H]([C@H]1C(=O)N[C@H](C#N)C[C@@H]1CC(C)(C)NC1=O)C2(C)C (single isomer, unassigned) [Compound 298]	–	–	–	< 2000	< 2000	< 2000
C[C@@H](OC1CC1)[C@@H](NC(=O)C(F)(F)F)C(=O)N1C[C@H]2[C@@H]([C@H]1C(=O)N[C@H](C#N)C[C@@H]1CC(C)(C)NC1=O)C2(C)C (single isomer, unassigned) [Compound 298a]	–	–	–	< 2000	< 2000	< 2000
C[C@@H](OC1(C)CC1)[C@H](NC(=O)C(F)(F)F)C(=O)N1C[C@H]2[C@@H]([C@H]1C(=O)N[C@H](C#N)C[C@@H]1CC(C)(C)NC1=O)C2(C)C (single isomer, unassigned) [Compound 299]	< 2000	< 2000	< 2000	< 2000	–	< 2000
C[C@@H](OC1(C)CC1)[C@H](NC(=O)C(F)(F)F)C(=O)N1C[C@H]2[C@@H](C1C(=O)N[C@H](C#N)C[C@@H]1CC(C)(C)NC1=O)C2(C)C (single isomer, unassigned) [Compound 299a]	–	–	–	< 2000	< 2000	< 2000
CN(C(=O)[C@@H](NC(=O)c1cnccn1)C(C)(C)C)[C@@H](CC1CC1)C(=O)N[C@H](C#N)C[C@@H]1CCCNC1=O [Compound 102, N-[(1S)-1-[[(1S)-2-[[(1S)-1-cyano-2-[(3S)-2-oxo-3-piperidyl]ethyl]amino]-1-(cyclopropylmethyl)-2-oxo-ethyl]-methyl-carbamoyl]-2,2-dimethyl-propyl]pyrazine-2-carboxamide]	2000 to 10000	> 30000	10000 to 30000	–	–	–
N#C[C@H](C[C@@H]1CCNC1=O)NC(=O)[C@H](CC1CC1)NC(=O)[C@H](Cc1ccc(F)cc1)NC(=O)c1cnccn1 [Compound 125]	< 2000	2000 to 10000	< 2000	–	–	–
C[C@@H](OC(C)(C)C)[C@H](NC(=O)C(F)(F)F)C(=O)N1C[C@H]2[C@@H]([C@H]1C(=O)N[C@H](C#N)C[C@@H]1CC3(CC3)NC1=O)C2(C)C [Compound 137, (1R,2S,5S)-3-[(2S,3R)-3-tert-butoxy-2-[(2,2,2-trifluoroacetyl)amino]butanoyl]-N-[(1S)-1-cyano-2-[(6R)-5-oxo-4-azaspiro[2.4]heptan-6-yl]ethyl]-6,6-dimethyl-3-azabicyclo[3.1.0]hexane-2-carboxamide]	–	–	–	< 2000	< 2000	< 2000
C[C@H](OC(C)(C)C)[C@H](NC(=O)C(F)(F)F)C(=O)N1C[C@H]2[C@@H]([C@H]1C(=O)N[C@H](C#N)C[C@@H]1CC3(CC3)NC1=O)C2(C)C [Compound 138, (1R,2S,5S)-3-[(2S,3S)-3-tert-butoxy-2-[(2,2,2-trifluoroacetyl)amino]butanoyl]-N-[(1S)-1-cyano-2-[(6R)-5-oxo-4-azaspiro[2.4]heptan-6-yl]ethyl]-6,6-dimethyl-3-azabicyclo[3.1.0]hexane-2-carboxamide]	–	–	–	< 2000	< 2000	< 2000
COC(C)(C)[C@H](NC(=O)C(F)(F)F)C(=O)N1C[C@H]2[C@@H]([C@H]1C(=O)N[C@H](C#N)C[C@@H]1CC3(CC3)NC1=O)C2(C)C [Compound 139, (1R,2S,5S)—N—((S)-1-cyan-2-((R)-5-oxo-4-azaspiro[2.4]heptan-6-yl)ethyl)-3-((S)-3-methoxy-3-methyl-2-(2,2,2-trifluoroacetamido)butanoyl)-6,6-dimethyl-3-azabicyclo[3.1.0]hexane-2-carboxamide]	–	–	–	< 2000	< 2000	< 2000
CC(C)(C)[C@H](N)C(=O)N1C[C@H]2[C@@H]([C@H]1C(=O)N[C@H](C#N)C[C@@H]1CC3(CC3)NC1=O)C2(C)C [Compound 235, (1R,2S,5S)-3-((S)-2-amino-3,3-dimethylbutanoyl)-N—((S)-1-cyano-2-((R)-5-oxo-4-azaspiro[2.4]heptan-6-yl)ethyl)-6,6-dimethyl-3-azabicyclo[3.1.0]hexane-2-carboxamide]	< 2000	< 2000	< 2000	–	–	–
C[C@@H](OC(C)(C)C)[C@H](NC(=O)C(F)(F)F)C(=O)N1C[C@H]2[C@@H]([C@H]1C(=O)N[C@H](C#N)C[C@@H]1CC(C)(C)NC1=O)C2(C)C [Compound 285, (1RSS)-3-[(2S,3R)-3-tert-butoxy-2-[(2,2,2-trifluoroacetyl)amino]butanoyl]-N-[(1S)-1-cyano-2-[(3R)-5,5-dimethyl-2-oxo-pyrrolidin-3-yl]ethyl]-6,6-dimethyl-3-azabicyclo[3.1.0]hexane-2-carboxamide]	< 2000	< 2000	< 2000	–	–	–
CO[C@H](C)[C@H](NC(=O)C(F)(F)F)C(=O)N1C[C@H]2[C@@H]([C@H]1C(=O)N[C@H](C#N)C[C@@H]1CC(C)(C)NC1=O)C2(C)C [Compound 290, (1R,2S,5S)-N—((S)-1-cyano-2-((R)-5,5-dimethyl-2-oxopyrrolidin-3-yl)ethyl)-3-((2S,3R)-3-methoxy-2-(2,2,2-trifluoroacetamido)butanoyl)-6,6-dimethyl-3-azabicyclo[3.1.0]hexane-2-carboxamide]	–	–	–	< 2000	< 2000	< 2000
C[C@@H](OC(C)(C)C)[C@H](NC(=O)C1(C(F)(F)F)CC1)C(=O)N1C[C@H]2[C@@H]([C@H]1C(=O)N[C@H](C#N)C[C@@H]1CC(C)(C)NC1=O)C2(C)C [Compound 295, (1R,2S,5S)-3-[(2S,3R)-3-tert-butoxy-2-[[1-(trifluoromethyl)cyclopropanecarbonyl]amino]butanoyl]-N-[(1S)-1-cyano-2-[(3R)-5,5-dimethyl-2-oxo-pyrrolidin-3-yl]ethyl]-6,6-dimethyl-3-azabicyclo[3.1.0]hexane-2-carboxamide]	–	–	–	< 2000	< 2000	< 2000
C[C@@H](OC1CCC1)[C@H](NC(=O)C(F)(F)F)C(=O)N1C[C@H]2[C@@H]([C@H]1C(=O)N[C@H](C#N)C[C@@H]1CC(C)(C)NC1=O)C2(C)C [Compound 307, (1R,2S,5S)—N-[(1S)-1-cyano-2-[(3R)-5,5-dimethyl-2-oxo-pyrrolidin-3-yl]ethyl]-3-[(2S,3R)-3-(cyclobutoxy)-2-[(2,2,2-trifluoroacetyl)amino]butanoyl]-6,6-dimethyl-3-azabicyclo[3.1.0]hexane-2-carboxamide]	< 2000	< 2000	< 2000	–	–	–

Source: patent publication US20240277795A1, “INHIBITORS OF CYSTEINE PROTEASES AND METHODS OF USE THEREOF” (Pardes Biosciences, Inc., priority 2021, published 2024)
